The values below come from patent US10479786B2, “Protein kinase inhibitors” (Princeton Drug Discovery Inc, priority 2016, dated 2019).

SMILES strings stand for the structures.

One assay concerns SU-DHL-4. The assay is described as follows: Cell inhibition assay (PrestoBlue, 48 h). It is filed as cell-based. As to conditions: Homo sapiens, SU-DHL-4, 48 h, SU-DHL-4 diffuse large B-cell lymphoma cells, read-out: IC50, inhibition of growth.
For the next assay, the target named is T1, BTK (Homo sapiens, UniProt Q06187).
T1 construct: purchased Carna Biosciences, Inc
T1 sequence (Q06187 whole entry): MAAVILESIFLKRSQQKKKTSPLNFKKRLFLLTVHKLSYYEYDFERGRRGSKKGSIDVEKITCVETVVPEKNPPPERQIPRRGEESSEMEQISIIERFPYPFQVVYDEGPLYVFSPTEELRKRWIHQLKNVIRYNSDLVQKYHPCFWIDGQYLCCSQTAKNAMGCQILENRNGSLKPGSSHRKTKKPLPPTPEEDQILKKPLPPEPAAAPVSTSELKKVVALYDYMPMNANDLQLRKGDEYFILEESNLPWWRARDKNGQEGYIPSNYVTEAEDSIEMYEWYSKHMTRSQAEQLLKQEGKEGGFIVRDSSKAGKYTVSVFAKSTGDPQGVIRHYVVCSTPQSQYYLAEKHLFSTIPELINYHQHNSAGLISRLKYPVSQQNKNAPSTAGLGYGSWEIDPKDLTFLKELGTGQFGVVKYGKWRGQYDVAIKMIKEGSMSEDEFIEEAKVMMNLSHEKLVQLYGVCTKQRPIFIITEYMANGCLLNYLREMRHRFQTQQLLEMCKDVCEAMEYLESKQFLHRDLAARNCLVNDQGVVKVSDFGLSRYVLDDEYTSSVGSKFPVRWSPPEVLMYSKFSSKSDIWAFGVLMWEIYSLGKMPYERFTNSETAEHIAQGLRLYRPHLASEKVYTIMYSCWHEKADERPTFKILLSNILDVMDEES
The assay is described as follows: Off-chip Mobility Shift Assay, kinase inhibition. It is filed as biochemical. As to conditions: recombinant BTK; for inhibition at 0.001 µM: at 1 nM; for inhibition at 0.01 µM: at 10 nM.

The target in a further assay is T2, LYNa (Homo sapiens, UniProt P07948).
T2 construct: purchased Carna Biosciences, Inc
T2 sequence (P07948 whole entry): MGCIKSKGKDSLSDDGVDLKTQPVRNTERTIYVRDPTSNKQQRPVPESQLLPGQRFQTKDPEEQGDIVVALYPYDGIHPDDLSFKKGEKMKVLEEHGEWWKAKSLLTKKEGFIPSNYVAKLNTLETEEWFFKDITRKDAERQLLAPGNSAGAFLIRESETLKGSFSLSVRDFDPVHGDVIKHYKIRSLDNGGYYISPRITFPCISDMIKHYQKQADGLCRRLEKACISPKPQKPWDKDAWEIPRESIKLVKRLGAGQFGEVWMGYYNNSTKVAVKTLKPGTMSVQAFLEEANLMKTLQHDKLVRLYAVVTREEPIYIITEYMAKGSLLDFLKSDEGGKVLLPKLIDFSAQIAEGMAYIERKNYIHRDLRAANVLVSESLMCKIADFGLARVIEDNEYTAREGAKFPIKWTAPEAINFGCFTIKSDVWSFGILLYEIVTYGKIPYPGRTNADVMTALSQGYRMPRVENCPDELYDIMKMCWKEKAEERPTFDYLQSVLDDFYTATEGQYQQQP
The assay is described as follows: Off-chip Mobility Shift Assay, kinase inhibition. The assay is classed as biochemical. As to conditions: recombinant LYNa; for inhibition at 0.001 µM: at 1 nM; for inhibition at 0.01 µM: at 10 nM, read-out: inhibition.

The target of another assay is T3, LCK (Homo sapiens, UniProt P06239).
T3 construct: purchased Carna Biosciences, Inc
T3 sequence (P06239 whole entry): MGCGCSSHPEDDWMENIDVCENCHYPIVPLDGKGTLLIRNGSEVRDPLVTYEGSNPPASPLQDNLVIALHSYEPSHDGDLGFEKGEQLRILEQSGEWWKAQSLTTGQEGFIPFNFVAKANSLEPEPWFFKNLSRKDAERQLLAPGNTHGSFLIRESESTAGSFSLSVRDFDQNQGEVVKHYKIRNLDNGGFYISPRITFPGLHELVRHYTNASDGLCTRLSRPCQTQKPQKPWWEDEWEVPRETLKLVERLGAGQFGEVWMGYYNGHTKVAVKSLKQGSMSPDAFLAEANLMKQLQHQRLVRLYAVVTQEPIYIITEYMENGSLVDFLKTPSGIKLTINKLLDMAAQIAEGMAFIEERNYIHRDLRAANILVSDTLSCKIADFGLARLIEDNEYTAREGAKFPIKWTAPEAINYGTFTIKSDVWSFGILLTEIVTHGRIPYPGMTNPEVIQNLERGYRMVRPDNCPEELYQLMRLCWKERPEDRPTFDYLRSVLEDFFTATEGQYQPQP
The assay is described as follows: Off-chip Mobility Shift Assay, kinase inhibition. As to conditions: recombinant LCK; for inhibition at 0.001 µM: at 1 nM; for inhibition at 0.01 µM: at 10 nM. The assay is classed as biochemical.

A further assay has as its target T4, FMS (Homo sapiens, UniProt P07333).
T4 construct: purchased Carna Biosciences, Inc
The assay is described as follows: Off-chip Mobility Shift Assay, kinase inhibition. It is filed as biochemical. As to conditions: at 10 nM; recombinant FMS.

In the next assay the target is T5, ARG (Homo sapiens, UniProt P42684).
T5 construct: purchased Carna Biosciences, Inc
As to the kind of experiment: Off-chip Mobility Shift Assay, kinase inhibition. As to conditions: at 10 nM; recombinant ARG; read-out: inhibition. The assay is classed as biochemical.

The target of a further assay is T6, PDGFRβ (Homo sapiens, UniProt P09619).
T6 construct: purchased Carna Biosciences, Inc
As to the kind of experiment: Off-chip Mobility Shift Assay, kinase inhibition. As to conditions: at 10 nM; recombinant PDGFRβ; read-out: inhibition. The assay is classed as biochemical.

The target of the next assay is T7, FGR (Homo sapiens, UniProt P09769).
T7 construct: purchased Carna Biosciences, Inc
T7 sequence (P09769 whole entry): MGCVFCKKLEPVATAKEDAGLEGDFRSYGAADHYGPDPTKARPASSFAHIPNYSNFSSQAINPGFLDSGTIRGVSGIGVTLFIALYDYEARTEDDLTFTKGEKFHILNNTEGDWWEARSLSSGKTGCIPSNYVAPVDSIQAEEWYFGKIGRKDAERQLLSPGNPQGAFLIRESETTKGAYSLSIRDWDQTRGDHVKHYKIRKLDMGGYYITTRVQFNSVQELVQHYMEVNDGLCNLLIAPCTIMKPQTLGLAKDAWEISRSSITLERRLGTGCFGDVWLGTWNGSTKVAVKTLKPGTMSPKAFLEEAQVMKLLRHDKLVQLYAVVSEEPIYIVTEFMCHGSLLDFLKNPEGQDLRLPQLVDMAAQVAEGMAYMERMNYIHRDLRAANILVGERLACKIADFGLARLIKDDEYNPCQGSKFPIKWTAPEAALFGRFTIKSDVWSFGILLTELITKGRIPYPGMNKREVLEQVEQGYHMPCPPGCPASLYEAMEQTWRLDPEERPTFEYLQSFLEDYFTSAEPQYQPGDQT
As to the kind of experiment: Off-chip Mobility Shift Assay, kinase inhibition. The assay is classed as biochemical. As to conditions: at 10 nM; recombinant FGR; read-out: inhibition.

A further assay deals with T8, BMX (Homo sapiens, UniProt P51813).
T8 construct: purchased Carna Biosciences, Inc
T8 sequence (P51813 1-675): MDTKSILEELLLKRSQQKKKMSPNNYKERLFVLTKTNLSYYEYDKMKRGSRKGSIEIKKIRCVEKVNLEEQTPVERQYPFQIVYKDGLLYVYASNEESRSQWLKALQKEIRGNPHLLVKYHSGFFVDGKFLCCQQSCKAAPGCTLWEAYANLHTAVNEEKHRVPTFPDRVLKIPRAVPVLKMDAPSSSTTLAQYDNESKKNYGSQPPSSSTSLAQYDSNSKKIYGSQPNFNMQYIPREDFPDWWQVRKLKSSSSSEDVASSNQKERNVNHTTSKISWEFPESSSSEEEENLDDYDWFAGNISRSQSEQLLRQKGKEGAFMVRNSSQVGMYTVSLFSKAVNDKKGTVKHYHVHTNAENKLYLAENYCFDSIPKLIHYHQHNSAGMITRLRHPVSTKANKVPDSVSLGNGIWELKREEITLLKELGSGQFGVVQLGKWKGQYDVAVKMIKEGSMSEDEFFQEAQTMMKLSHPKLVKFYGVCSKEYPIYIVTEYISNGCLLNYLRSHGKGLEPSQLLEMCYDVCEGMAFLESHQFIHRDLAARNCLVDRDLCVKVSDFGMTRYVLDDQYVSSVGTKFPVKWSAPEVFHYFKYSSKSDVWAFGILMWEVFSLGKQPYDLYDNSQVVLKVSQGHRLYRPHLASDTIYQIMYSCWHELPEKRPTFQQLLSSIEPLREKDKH
The assay is described as follows: Off-chip Mobility Shift Assay, kinase inhibition. The assay is classed as biochemical. As to conditions: recombinant BMX; for inhibition at 0.001 µM: at 1 nM; for inhibition at 0.01 µM: at 10 nM.

The next assay addresses T9, PDGFRα (Homo sapiens, UniProt P16234).
T9 construct: purchased Carna Biosciences, Inc
As to the kind of experiment: Off-chip Mobility Shift Assay, kinase inhibition. The assay is classed as biochemical. As to conditions: at 10 nM; recombinant PDGFRα; read-out: inhibition.

Assay [1] relates to battery of selected protein kinases. As to the kind of experiment: In vitro screen of a battery of selected protein kinases (summary statement). It is filed as biochemical. As to conditions: BTK, BMX, ABL, ABL(E255K), SRC, ACK, ARG, BLK, DDR2, EPHA, FGR, FMS, FRK, FYN, HCK, LCK, LYN, PDGFRα, PDGFRβ, YES, PIK3CA/PIK3R1, among others.
A further assay concerns the target T10, DDR2 (Homo sapiens, UniProt Q16832).
T10 construct: purchased Carna Biosciences, Inc
T10 sequence (Q16832 22-855): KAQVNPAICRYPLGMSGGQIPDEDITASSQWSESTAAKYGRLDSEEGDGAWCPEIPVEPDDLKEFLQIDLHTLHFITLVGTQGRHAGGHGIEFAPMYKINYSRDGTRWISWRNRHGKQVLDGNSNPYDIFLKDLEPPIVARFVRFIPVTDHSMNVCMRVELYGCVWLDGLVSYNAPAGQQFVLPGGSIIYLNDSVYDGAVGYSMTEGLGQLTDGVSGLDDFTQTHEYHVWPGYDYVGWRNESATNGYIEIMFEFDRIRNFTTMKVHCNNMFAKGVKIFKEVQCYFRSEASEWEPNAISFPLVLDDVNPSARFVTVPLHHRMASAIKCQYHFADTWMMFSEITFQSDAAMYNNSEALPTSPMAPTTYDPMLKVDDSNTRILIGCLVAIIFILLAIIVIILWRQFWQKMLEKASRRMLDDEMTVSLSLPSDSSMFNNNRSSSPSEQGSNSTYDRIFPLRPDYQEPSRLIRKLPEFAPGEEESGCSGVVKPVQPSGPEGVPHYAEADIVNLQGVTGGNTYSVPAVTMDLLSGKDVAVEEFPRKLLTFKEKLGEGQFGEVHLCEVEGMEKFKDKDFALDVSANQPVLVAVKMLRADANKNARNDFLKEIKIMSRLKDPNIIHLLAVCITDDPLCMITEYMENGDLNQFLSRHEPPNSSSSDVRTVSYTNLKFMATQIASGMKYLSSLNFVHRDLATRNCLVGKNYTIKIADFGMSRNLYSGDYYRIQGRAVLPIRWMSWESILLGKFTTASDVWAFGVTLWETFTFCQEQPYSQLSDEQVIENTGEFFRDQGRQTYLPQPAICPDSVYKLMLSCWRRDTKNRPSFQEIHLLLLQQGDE
The assay is described as follows: Off-chip Mobility Shift Assay, kinase inhibition. As to conditions: at 10 nM; recombinant DDR2; read-out: inhibition. The assay is classed as biochemical.

The target in the next assay is T11, YES (Homo sapiens, UniProt P07947).
T11 construct: purchased Carna Biosciences, Inc
T11 sequence (P07947 whole entry): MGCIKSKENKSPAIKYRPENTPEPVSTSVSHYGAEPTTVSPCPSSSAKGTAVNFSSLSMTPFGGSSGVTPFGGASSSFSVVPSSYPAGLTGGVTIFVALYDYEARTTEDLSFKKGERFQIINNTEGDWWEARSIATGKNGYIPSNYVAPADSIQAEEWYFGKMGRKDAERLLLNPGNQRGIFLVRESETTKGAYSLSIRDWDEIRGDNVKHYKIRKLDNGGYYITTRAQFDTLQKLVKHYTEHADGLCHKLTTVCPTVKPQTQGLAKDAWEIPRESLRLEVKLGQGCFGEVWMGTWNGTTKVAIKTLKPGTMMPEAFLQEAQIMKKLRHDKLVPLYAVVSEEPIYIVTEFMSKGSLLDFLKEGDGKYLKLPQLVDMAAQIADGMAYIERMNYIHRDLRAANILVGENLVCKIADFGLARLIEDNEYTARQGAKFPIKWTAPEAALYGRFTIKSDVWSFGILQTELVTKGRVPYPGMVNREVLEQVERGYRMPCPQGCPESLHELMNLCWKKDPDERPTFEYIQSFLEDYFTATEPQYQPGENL
As to the kind of experiment: Off-chip Mobility Shift Assay, kinase inhibition. It is filed as biochemical. As to conditions: recombinant YES; for inhibition at 0.001 µM: at 1 nM; for inhibition at 0.01 µM: at 10 nM.

In a further assay the target is T12, BLK (Homo sapiens, UniProt P51451).
T12 construct: purchased Carna Biosciences, Inc
T12 sequence (P51451 whole entry): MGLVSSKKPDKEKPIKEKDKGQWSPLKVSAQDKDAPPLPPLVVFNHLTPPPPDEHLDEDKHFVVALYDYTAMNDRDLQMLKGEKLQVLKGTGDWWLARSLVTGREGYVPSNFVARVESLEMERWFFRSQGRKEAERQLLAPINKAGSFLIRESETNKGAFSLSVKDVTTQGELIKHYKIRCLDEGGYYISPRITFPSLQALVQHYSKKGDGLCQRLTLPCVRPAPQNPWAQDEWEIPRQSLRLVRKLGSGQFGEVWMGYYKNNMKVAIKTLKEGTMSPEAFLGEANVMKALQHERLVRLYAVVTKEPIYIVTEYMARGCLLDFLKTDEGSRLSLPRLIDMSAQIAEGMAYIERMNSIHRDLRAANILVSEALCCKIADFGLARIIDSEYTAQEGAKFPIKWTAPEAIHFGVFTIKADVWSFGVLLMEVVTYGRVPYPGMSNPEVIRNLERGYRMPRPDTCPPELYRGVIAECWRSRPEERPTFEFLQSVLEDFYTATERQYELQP
The assay is described as follows: Off-chip Mobility Shift Assay, kinase inhibition. The assay is classed as biochemical. As to conditions: at 10 nM; recombinant BLK.

The target of a further assay is T13, SRC (Homo sapiens, UniProt P12931).
T13 construct: purchased Carna Biosciences, Inc
T13 sequence (P12931 whole entry): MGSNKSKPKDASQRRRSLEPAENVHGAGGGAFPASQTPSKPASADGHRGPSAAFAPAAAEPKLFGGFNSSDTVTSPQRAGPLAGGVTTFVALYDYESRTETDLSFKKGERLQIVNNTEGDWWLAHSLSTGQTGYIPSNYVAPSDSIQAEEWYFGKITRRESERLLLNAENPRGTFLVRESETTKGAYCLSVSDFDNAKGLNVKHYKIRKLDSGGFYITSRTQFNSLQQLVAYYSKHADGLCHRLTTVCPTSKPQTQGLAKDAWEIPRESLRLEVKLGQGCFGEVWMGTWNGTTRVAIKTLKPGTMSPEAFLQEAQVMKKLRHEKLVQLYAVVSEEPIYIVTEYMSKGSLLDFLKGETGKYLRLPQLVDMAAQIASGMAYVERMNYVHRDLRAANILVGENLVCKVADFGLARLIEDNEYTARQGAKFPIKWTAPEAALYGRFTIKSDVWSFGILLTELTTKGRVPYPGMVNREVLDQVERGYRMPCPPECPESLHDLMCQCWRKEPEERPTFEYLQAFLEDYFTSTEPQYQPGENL
The assay is described as follows: Off-chip Mobility Shift Assay, kinase inhibition. It is filed as biochemical. As to conditions: recombinant SRC; for inhibition at 0.001 µM: at 1 nM; for inhibition at 0.01 µM: at 10 nM.

T4 sequence (P07333 20-972): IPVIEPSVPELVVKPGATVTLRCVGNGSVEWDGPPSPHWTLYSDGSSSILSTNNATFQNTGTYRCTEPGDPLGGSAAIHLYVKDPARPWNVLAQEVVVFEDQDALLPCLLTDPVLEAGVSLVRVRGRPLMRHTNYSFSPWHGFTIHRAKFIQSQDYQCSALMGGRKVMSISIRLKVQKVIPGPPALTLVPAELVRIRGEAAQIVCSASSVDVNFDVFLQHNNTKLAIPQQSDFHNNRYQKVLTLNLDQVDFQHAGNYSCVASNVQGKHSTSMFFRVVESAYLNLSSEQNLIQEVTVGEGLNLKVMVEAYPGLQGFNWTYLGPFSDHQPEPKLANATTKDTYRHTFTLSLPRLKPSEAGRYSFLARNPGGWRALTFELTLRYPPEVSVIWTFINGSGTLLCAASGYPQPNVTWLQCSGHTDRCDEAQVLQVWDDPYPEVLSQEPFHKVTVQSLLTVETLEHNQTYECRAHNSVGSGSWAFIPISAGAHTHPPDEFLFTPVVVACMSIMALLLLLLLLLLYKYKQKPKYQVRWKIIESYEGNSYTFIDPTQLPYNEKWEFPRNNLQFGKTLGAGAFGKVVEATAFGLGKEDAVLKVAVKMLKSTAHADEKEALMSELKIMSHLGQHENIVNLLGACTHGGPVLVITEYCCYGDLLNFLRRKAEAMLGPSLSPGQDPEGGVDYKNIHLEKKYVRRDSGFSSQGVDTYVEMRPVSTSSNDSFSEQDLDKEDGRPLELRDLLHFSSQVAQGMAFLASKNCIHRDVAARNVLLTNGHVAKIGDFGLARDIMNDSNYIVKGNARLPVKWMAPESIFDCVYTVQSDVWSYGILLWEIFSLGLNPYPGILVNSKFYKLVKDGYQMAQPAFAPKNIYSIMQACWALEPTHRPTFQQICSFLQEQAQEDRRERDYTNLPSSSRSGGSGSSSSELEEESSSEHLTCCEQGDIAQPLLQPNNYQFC

Broadly, the IC50 is the point on the concentration scale where inhibition reaches its midpoint. Usually inhibition stands for the change of the read-out against control, counted positive when it falls. Regarding `[2H]c1cc(C)c(NC(=O)c2cnc(Nc3cc(N4CC[C@H](O)C4)nc(C)n3)s2)c(Cl)c1` [Compound IV, N-(2-chloro-4-deutero-6-methylphenyl)-2-[[2-methyl-6-((S)-3-hydroxypyrrolidin-1-yl)pyrimidin-4-yl]amino]thiazole-5-carboxamide], the IC50 in the assay with SU-DHL-4 is below 20 nM. Further, the inhibition at 0.001 µM at BTK, on LYNa, at LCK, on BMX, at YES and at SRC was above 50% in each case. Besides, the inhibition at 0.01 µM on BTK, on LYNa, at LCK, at FMS, on ARG and on PDGFRβ was above 50% each time. The inhibition at 0.01 µM on FGR, on BMX, on PDGFRα, at DDR2, on YES and at BLK was above 50% in each case. In addition, the inhibition at 0.01 µM at SRC is above 50%. Further, the “activity to inhibit kinases” value in assay [1] is on record as “potent activity”.

For `Cc1nc(Nc2ncc(C(=O)Nc3c(C)cccc3Cl)s2)cc(N2CCC(O)CC2)n1` [Compound IX, N-(2-chloro-6-methylphenyl)-2-[[2-methyl-6-(4-hydroxypiperidin-1-yl)pyrimidin-4-yl]amino]thiazole-5-carboxamide], the IC50 in the assay with SU-DHL-4 was below 20 nM. In addition, the inhibition at 0.001 µM on BTK, at LYNa, on LCK, on BMX, at YES and on SRC was above 50% throughout. Also, the inhibition at 0.01 µM at BTK, at LYNa, at LCK, on FMS, at ARG and on PDGFRβ was above 50% throughout. The inhibition at 0.01 µM at FGR, at BMX, on PDGFRα, on DDR2, at YES and at BLK was above 50% in each case. At SRC, the inhibition at 0.01 µM was above 50%. Further, in assay [1], the “activity to inhibit kinases” value is listed as “potent activity”.

For `[2H]c1cc(C)c(NC(=O)c2cnc(Nc3cc(N4CC[C@@H](O)C4)nc(C)n3)s2)c(Cl)c1` [Compound V, N-(2-chloro-4-deutero-6-methylphenyl)-2-[[2-methyl-6-((R)-3-hydroxypyrrolidin-1-yl)pyrimidin-4-yl]amino]thiazole-5-carboxamide], in the assay with SU-DHL-4, the IC50 was below 20 nM. Besides, the inhibition at 0.001 µM on BTK, at LYNa, on LCK, on BMX, at YES and at SRC was above 50% throughout. The inhibition at 0.01 µM at BTK, on LYNa, at LCK, on FMS, at ARG and on PDGFRβ was above 50% throughout. Moreover, the inhibition at 0.01 µM at FGR, at BMX, at PDGFRα, at DDR2, on YES and on BLK was above 50% in each case. Moreover, the inhibition at 0.01 µM at SRC was above 50%. The “activity to inhibit kinases” value in [1] is “potent activity”.

As for `[2H]c1cc(C)c(NC(=O)c2cnc(Nc3cc(N4CC[C@H](N)C4)nc(C)n3)s2)c(Cl)c1` [Compound VI, N-(2-chloro-4-dutero-6-methylphenyl)-2-[[2-methyl-6-((S)-3-aminopyrrolidin-1-yl)pyrimidin-4-yl]amino]thiazole-5-carboxamide], in the assay with SU-DHL-4, the concentration for half-maximal inhibition (IC50) was below 20 nM. For the same compound, the inhibition at 0.001 µM on BTK, on LYNa, on LCK, on BMX, at YES and on SRC was above 50% in each case. Besides, the inhibition at 0.01 µM on BTK, at LYNa, on LCK, at FMS, on ARG and on PDGFRβ was above 50% each time. For the same compound, the inhibition at 0.01 µM at FGR, at BMX, on PDGFRα, at DDR2, at YES and on BLK was above 50% each time. Moreover, on SRC, the inhibition at 0.01 µM was above 50%. For the same compound, the “activity to inhibit kinases” value in [1] is “potent activity”.
